The values that follow come from patent US20080021049A1, “Treatment Of Diet-Related Conditions Using Phospholipase-A2 Inhibitors Comprising Indoles And Related Compounds” (priority 2004, published 2008).

Read-outs that look alike come from different tables or passages of the source. Bounds are passed on as bounds.

Series [1] deals with human pancreatic secreted PLA2 (hps PLA2) (Homo sapiens, UniProt P04054). The note with it: reported literature data; cited from earlier work.
Series [2] has as its target porcine pancreatic secreted PLA2 (pps PLA2) (Sus scrofa, UniProt P00592). To be noted: reported literature data; cited from earlier work.
Series [3] is described as follows: Pharmokinetic study, bioavailability (Example 6C). Format: in vivo, mice. As for the experimental part: This example characterized ILY-4001 [2-(3-(2-amino-2-oxoacetyl)-1-(biphenyl-2-ylmethyl)-2-methyl-1H-indol-4-yloxy)acetic acid], alternatively referred to herein as methyl indoxam, with respect to activity, as determined by IC50 assay (Example 6A), with respect to cell absorption, as determined by in-vitro Caco-2 assay (Example 6B) and with respect to bioavailability, as determined using in-vivo mice studies (Example 6C).
Bioavailability was calculated as a ratio of AUC-oral/AUC-intravenous (IV). To determine this ratio, a first set of subject animals were given a measured intravenous (IV) dose of ILY-4001, followed by a determination of ILY-4001 levels in the blood at various time points after administration (e.g., 5 minutes through 24 hours). Another second set of animals was similarly dosed using oral administration, with blood levels of ILY-4001 determined at various time points after administration (e.g., 30 minutes through 24 hours). The level of ILY-4001 in systemic circulation were determined by generally accepted methods (for example as described in Evans, G., A Handbook of Bioanalysis and Drug Metabolism. Boca Raton, CRC Press (2004)). Specifically, […]/mass spectrometry/mass spectrometry (LC/MS/MS) analytical methods were used to quantitate plasma concentrations of ILY-4001 after oral and intravenous administration. […]

Series [4] is classed as in vivo, mice. The note with it: for body weight gain compared to wild-type control group: week 4 and week 10.
The format of series [5] is in vivo, mice. To be noted: low dose 25 mg/kg/day in diet.
Series [6] is classed as in vivo, mice. The note with it: 10 weeks.
The next series can be described thus: Stability at low pH. It is filed as physicochemical.
The next series deals with human PLA2 IB enzyme (Homo sapiens, UniProt P04054). The note with it: pyrene substrate release from vesicles (Singer, Ghomashchi et al. 2002); read-out: IC50 versus the human PLA2 IB enzyme; cited from earlier work.
human PLA2 IB enzyme, sequence (P04054 23-148): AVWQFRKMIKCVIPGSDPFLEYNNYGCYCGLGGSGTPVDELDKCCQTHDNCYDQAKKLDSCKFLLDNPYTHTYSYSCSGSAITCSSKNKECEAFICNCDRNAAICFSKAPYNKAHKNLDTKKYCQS
For a further series, the target named is mouse PLA2 IB enzyme (Mus musculus, UniProt Q9Z0Y2). To be noted: pyrene substrate release from vesicles (Singer, Ghomashchi et al. 2002); read-out: IC50 versus the mouse PLA2 IB enzyme; cited from earlier work.
mouse PLA2 IB enzyme, sequence (Q9Z0Y2 23-146): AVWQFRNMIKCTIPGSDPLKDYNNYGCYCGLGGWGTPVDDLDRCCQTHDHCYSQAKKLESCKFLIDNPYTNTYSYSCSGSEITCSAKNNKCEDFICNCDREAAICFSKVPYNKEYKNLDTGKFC
In series [7] the test system is Caco-2 cells. Put plainly: Caco-2 permeability study (Example 6B). In general terms: Caco-2 cells form a polarised layer with tight junctions and transporters.
Series [8] concerns Caco-2 cells.

human pancreatic secreted PLA2 (hps PLA2), sequence (P04054 23-148): as the sequence (P04054 23-148) above
porcine pancreatic secreted PLA2 (pps PLA2), sequence (P00592 23-146): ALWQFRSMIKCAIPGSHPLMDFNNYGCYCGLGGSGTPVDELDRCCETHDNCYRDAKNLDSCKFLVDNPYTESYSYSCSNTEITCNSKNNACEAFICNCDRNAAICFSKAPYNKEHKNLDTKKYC

What is called IC50 is the concentration at which inhibition is half-maximal. In the case of `Cc1c(CC(N)=O)c2c(OCC(=O)O)cccc2n1Cc1cccc(Cl)c1`, the results for the IC50 in series [1] and in series [2] were 1.2 µM and 0.02 µM, respectively.

As to `Cc1c(CC(N)=O)c2c(OCC(=O)O)cccc2n1Cc1ccccc1-c1ccccc1`, the IC50 was 4.09 µM in series [1] and 0.014 µM in series [2].

Take `Cc1c(CC(=O)NN)c2cc(OCCCC(=O)O)ccc2n1Cc1ccccc1`: the “IC50 (μM) hps PLA2” value in [1] is given as “no activity”. In addition, the “IC50 (μM) pps PLA2” value in series [2] is “no activity”.

On to `Cc1c(C(=O)C(N)=O)c2c(/C=C/C(=O)O)cccc2n1Cc1ccccc1`, for which the IC50 in [1] was over 100 µM.

Regarding `Cc1c(C(=O)C(N)=O)c2c(CCC(=O)O)cccc2n1Cc1ccccc1`, the IC50 in series [1] is over 100 µM.

The bioavailability is dose-corrected exposure relative to a reference, in per cent. As to `Cc1c(C(=O)C(N)=O)c2c(OCC(=O)O)cccc2n1Cc1ccccc1-c1ccccc1` [ILY-4001, 2-(3-(2-amino-2-oxoacetyl)-1-(biphenyl-2-ylmethyl)-2-methyl-1H-indol-4-yloxy)acetic acid], in [3] (mouse, plasma, oral, 30 mg/kg, read-out: % F (bioavailability)), the bioavailability stood at 28%. Further, the “level of non-absorption from the GI tract into systemic circulation” value in series [3] (oral 30 mg/kg) was about 72%. The “body weight gain modulation relative to PLA2 (−/−) mice” value is “comparable to that achieved in the PLA2 (−/−) mice” in [4] (25 mg/kg/d (low dose) in diet, ten weeks); “approaching that achieved in the PLA2 (−/−) mice” in series [4] (25 mg/kg/d in diet, four weeks); “approaching that achieved in the PLA2 (−/−) mice” in series [4] (90 mg/kg/d in diet, four weeks). Besides, the “body weight gain compared to wild-type control group” value in series [4] (25 mg/kg/d in diet) and in series [4] (90 mg/kg/d in diet) was “significantly reduced body weight gains” in each case. Besides, the results for the fasting glucose levels entry in [5] (week four) and in [5] (week ten) were “moderately beneficial effect” and “a beneficial effect was not observed”, respectively. Further, the “plasma level of cholesterol” value in series [6] (high dose 90 mg/kg/day in diet) and in series [6] (low dose 25 mg/kg/day in diet) was “substantially reduced” in each case. For the same molecule, the “plasma level of triglycerides” value in series [6] (high dose 90 mg/kg/day in diet) and in series [6] (low dose 25 mg/kg/day in diet) was “substantially reduced” in each case. Further, the “stability at low pH” value in “Stability at low pH” was “stable at low pH”. Also, the figures for the IC50 on human PLA2 IB enzyme and on mouse PLA2 IB enzyme were about 200 nM and about 150 nM, respectively. Moreover, the “apparent permeability (Papp)” value in the series on Caco-2 cells [7] (50 ug/ml in apical well, sampled basolateral, Caco-2 monolayer) is listed as “around 1.66×10^−7 cm/s”. Moreover, the “absorption from the GI lumen” value with Caco-2 cells [7] (based on Caco-2 assays and pharmokinetic studies) was “relatively low absorption”.

For Lucifer Yellow, in the series on Caco-2 cells [8], the “apparent permeability (Papp)” value is on record as “around 2.82×10^−7+/−0.37×10^−7 cm/s”.
